Laboratory results: patent publication US9334290B2, “Substituted tetrahydrocarbazole and carbazole carboxamide compounds” (Bristol-Myers Squibb Company, priority 2013, dated 2016)
Read-outs that look alike come from different tables or passages of the source.

How the values were obtained:
[1] = system: CD69 expression on B cells in human whole blood; test: Whole blood assay of BCR-stimulated CD69 expression on B cells; format: cell-based
[2] = molecular target: Jak2 tyrosine kinase (Homo sapiens (Human), UniProt O60674); test: Jak2 tyrosine kinase assay; format: biochemical
Chain of Jak2 tyrosine kinase (O60674 whole entry): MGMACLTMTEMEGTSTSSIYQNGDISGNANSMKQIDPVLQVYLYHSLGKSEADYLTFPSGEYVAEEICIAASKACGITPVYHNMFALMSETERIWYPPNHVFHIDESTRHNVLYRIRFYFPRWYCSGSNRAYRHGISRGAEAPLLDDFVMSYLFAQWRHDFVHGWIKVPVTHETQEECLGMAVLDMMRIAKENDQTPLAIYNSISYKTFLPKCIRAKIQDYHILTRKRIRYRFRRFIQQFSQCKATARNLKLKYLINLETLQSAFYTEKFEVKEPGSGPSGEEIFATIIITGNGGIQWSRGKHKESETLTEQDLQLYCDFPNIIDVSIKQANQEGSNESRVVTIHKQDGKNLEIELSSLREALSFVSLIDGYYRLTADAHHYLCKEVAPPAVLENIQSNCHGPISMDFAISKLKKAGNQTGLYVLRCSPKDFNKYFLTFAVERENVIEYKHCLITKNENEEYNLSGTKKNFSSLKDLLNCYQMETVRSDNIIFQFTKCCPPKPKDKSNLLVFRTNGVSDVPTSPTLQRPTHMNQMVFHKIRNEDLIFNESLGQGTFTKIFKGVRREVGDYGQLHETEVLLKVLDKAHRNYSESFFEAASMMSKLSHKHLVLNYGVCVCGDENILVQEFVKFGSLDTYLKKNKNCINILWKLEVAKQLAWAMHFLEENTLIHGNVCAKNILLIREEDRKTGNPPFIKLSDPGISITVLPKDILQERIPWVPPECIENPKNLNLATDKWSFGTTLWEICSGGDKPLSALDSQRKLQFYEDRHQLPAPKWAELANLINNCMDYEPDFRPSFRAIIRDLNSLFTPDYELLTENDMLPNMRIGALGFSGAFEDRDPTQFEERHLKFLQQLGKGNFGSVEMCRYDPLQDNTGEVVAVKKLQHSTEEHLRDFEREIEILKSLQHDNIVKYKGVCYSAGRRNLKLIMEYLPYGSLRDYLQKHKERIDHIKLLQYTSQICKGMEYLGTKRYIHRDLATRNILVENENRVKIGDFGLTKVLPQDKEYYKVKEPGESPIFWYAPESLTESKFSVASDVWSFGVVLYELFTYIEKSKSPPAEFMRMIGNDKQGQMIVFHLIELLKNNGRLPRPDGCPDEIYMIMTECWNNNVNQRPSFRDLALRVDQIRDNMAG

[3] = BCR-stimulated, read-out: CD69 IC50 values

| Compound | IC50 [1, 3] | other results |
| --- | --- | --- |
| Cc1c(-c2c(F)cc(C(N)=O)c3[nH]c4cc(C(C)(C)O)ccc4c23)cccc1-n1c(=O)c2cccc(F)c2n(C)c1=O (atropisomer, axis not shown) [Example 18, 3-Fluoro-4-(3-(S)-(8-fluoro-1-methyl-2,4-dioxo-1,2-dihydroquinazolin-3(4H)-yl)-2-methylphenyl)-7-(2-hydroxypropan-2-yl)-9H-carbazole-1-carboxamide] | 56 nM | – |
| Cc1c(-c2c(Cl)cc(C(N)=O)c3[nH]c4cc(C(C)(C)O)ccc4c23)cccc1-n1c(=O)c2cccc(F)c2n(C)c1=O (single isomer, unassigned) [Example 1] | 190 nM | – |
| Cc1c(-c2c(F)cc(C(N)=O)c3[nH]c4c(c23)CC[C@H](C(C)(C)O)C4)cccc1-n1c(=O)cc2c(Cl)cccn2c1=O (single isomer, unassigned) [Example 64] | – | IC50 [2]: > 2000 nM |
| Cc1c(-c2ccc(C(N)=O)c3[nH]c4cc(C(C)(C)O)ccc4c23)cccc1-n1cnc2ccccc2c1=O [Comparative Example 75, 7-(2-Hydroxypropan-2-yl)-4-(2-methyl-3-(4-oxoquinazolin-3(4H)-yl)phenyl)-9H-carbazole-1-carboxamide, reference compound] | – | IC50 ([1]; Homo sapiens, B-cell, 18 h, anti-IgM + IL-4 stimulation, 18 h, read-out: CD69 IC50): 650 nM |
| Cc1c(-c2c(F)cc(C(N)=O)c3[nH]c4cc(C(C)(C)O)ccc4c23)cccc1-n1c(=O)c2cccc(F)c2n(C)c1=O [Example 17, 3-Fluoro-4-(3-(8-fluoro-1-methyl-2,4-dioxo-1,2-dihydroquinazolin-3(4H)-yl)-2-methylphenyl)-7-(2-hydroxypropan-2-yl)-9H-carbazole-1-carboxamide] | 120 nM | – |
| Cc1c(-c2c(F)cc(C(N)=O)c3[nH]c4cc(C(C)(C)O)ccc4c23)cccc1-n1c(=O)[nH]c2c(F)cccc2c1=O [Example 20, 3-Fluoro-4-(3-(8-fluoro-2,4-dioxo-1,2-dihydroquinazolin-3(4H)-yl)-2-methylphenyl)-7-(2-hydroxypropan-2-yl)-9H-carbazole-1-carboxamide] | 16 nM | – |
| Cc1c(-c2c(F)cc(C(N)=O)c3[nH]c4cc(C(C)(C)O)ccc4c23)cccc1-n1c(=O)[nH]c2c(F)cccc2c1=O [Example 21, 3-Fluoro-4-(R)-(3-(R)-(8-fluoro-2,4-dioxo-1,2-dihydroquinazolin-3(4H)-yl)-2-methylphenyl)-7-(2-hydroxypropan-2-yl)-9H-carbazole-1-carboxamide] | 17 nM | – |
| Cc1c(-c2c(F)cc(C(N)=O)c3[nH]c4cc(C(C)(C)O)ccc4c23)cccc1-n1c(=O)[nH]c2c(F)cccc2c1=O [Example 22, 3-Fluoro-4-(R)-(3-(S)-(8-fluoro-2,4-dioxo-1,2-dihydroquinazolin-3(4H)-yl)-2-methylphenyl)-7-(2-hydroxypropan-2-yl)-9H-carbazole-1-carboxamide] | 120 nM | – |
| Cc1c(-c2c(Cl)cc(C(N)=O)c3[nH]c4c(c23)CC[C@H](C(C)(C)O)C4)cccc1-n1c(=O)c2cccc(F)c2n(C)c1=O [Example 25, 6-Chloro-5-(3-(8-fluoro-1-methyl-2,4-dioxo-1,2-dihydroquinazolin-3(4H)-yl)-2-methylphenyl)-2-(S)-(2-hydroxypropan-2-yl)-2,3,4,9-tetrahydro-1H-carbazole-8-carboxamide] | – | IC50 [2]: > 2000 nM |
| [2H]C([2H])([2H])n1c(=O)n(-c2cccc(-c3c(F)cc(C(N)=O)c4[nH]c5cc(C(C)(C)O)ccc5c34)c2C)c(=O)c2cccc(F)c21 [Example 52] | – | IC50 [2]: 1100 nM |

Now from value to compound, other results behind:

| IC50 [1, 3] | Compound | other results |
| --- | --- | --- |
| 90 nM | Cc1c(-c2c(Cl)cc(C(N)=O)c3[nH]c4cc(C(C)(C)O)ccc4c23)cccc1-n1c(=O)c2cccc(F)c2n(C)c1=O (single isomer, unassigned) [Example 2] | – |
| 98 nM | Cc1c(-c2c(Cl)cc(C(N)=O)c3[nH]c4cc(C(C)(C)O)ccc4c23)cccc1-n1c(=O)ccn(-c2ccc(F)cc2)c1=O [Example 23, 3-Chloro-4-(3-(3-(4-fluorophenyl)-2,6-dioxo-2,3-dihydropyrimidin-1(6H)-yl)-2-methylphenyl)-7-(2-hydroxypropan-2-yl)-9H-carbazole-1-carboxamide] | – |
